According to PubChem BioAssay (NCI):
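Following 48 hours of exposure in 96-well plates, responses at five concentrations were used to interpolate endpoints linearly. GI50 is the concentration that inhibits growth by half. The concentration for full growth arrest is given as TGI.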

Legend:
Assay in all cases: NCI tumour cell line growth inhibition, 48 h
[1] = tested on: OVCAR-8 ovarian
[2] = tested on: UACC-62 melanoma
[3] = tested on: HCC-2998 colon
[4] = tested on: K-562 leukemia
[5] = tested on: RXF 393 renal
[6] = tested on: BT-549 breast
[7] = tested on: UO-31 renal
[8] = tested on: TK-10 renal
[9] = tested on: SF-539 CNS
[10] = tested on: SK-MEL-28 melanoma
[11] = tested on: MALME-3M melanoma
[12] = tested on: CCRF-CEM leukemia
[13] = tested on: HCT-116 colon
[14] = tested on: A549 NSCLC
[15] = tested on: U251 CNS
[16] = tested on: MOLT-4 leukemia
[17] = tested on: NCI-H522 lung
[18] = tested on: MDA-MB-435
[19] = tested on: T-47D breast
[20] = tested on: SF-268 CNS
[21] = tested on: SNB-19 CNS
[22] = tested on: 786-0 renal
[23] = tested on: SR leukemia
[24] = tested on: SF-295 CNS
[25] = tested on: HOP-62 NSCLC
[26] = tested on: LOX IMVI melanoma
[27] = tested on: SK-OV-3 ovarian
[28] = tested on: NCI-H23 lung
[29] = tested on: HCT-15 colon
[30] = tested on: OVCAR-4 ovarian
[31] = tested on: PC-3 prostate
[32] = tested on: COLO 205 colon
[33] = tested on: OVCAR-5 ovarian
[34] = tested on: UACC-257 melanoma
[35] = tested on: ACHN renal
[36] = tested on: KM12 colon
[37] = tested on: NCI-H460 lung
[38] = tested on: SK-MEL-5 melanoma
[39] = tested on: SNB-75 CNS
[40] = tested on: NCI/ADR-RES ovarian
[41] = tested on: HOP-92 NSCLC
[42] = tested on: HL-60(TB) leukemia
[43] = tested on: RPMI-8226 leukemia
[44] = tested on: M14 melanoma
[45] = tested on: DU-145 prostate
[46] = tested on: HS 578T breast
[47] = tested on: IGROV1 ovarian
[48] = tested on: OVCAR-3 ovarian
[49] = tested on: CAKI-1 renal
[50] = tested on: A498 renal
[51] = tested on: SW-620 colon
[52] = tested on: SK-MEL-2 melanoma
[53] = tested on: MDA-MB-231 breast
[54] = tested on: MCF7 breast
[55] = tested on: HT29 colon
[56] = tested on: SN12C renal
[57] = tested on: NCI-H226 lung
[58] = tested on: EKVX NSCLC

Structure (SMILES): O=c1[nH]c(C2CCCN2)nc2c1oc1ccc(Cl)cc12 (stereo unspecified)
- GI50 [1]: > 100 µM
- TGI [1]: > 100 µM
- GI50 [2]: 98.8 µM
- TGI [2]: > 100 µM
- GI50 [3]: > 100 µM
- TGI [3]: > 100 µM
- GI50 [4]: > 84.4 µM
- TGI [4]: > 100 µM
- GI50 [5]: > 70.2 µM
- TGI [5]: > 100 µM
- GI50 [6]: 31.5 µM
- TGI [6]: > 100 µM
- GI50 [7]: 26.9 µM
- TGI [7]: > 100 µM
- GI50 [8]: > 100 µM
- TGI [8]: > 100 µM
- GI50 [9]: 36.9 µM
- TGI [9]: > 100 µM
- GI50 [10]: > 100 µM
- TGI [10]: > 100 µM
- GI50 [11]: 46.3 µM
- TGI [11]: > 100 µM
- GI50 [12]: 68.1 µM
- TGI [12]: > 100 µM
- GI50 [13]: > 90.7 µM
- TGI [13]: > 100 µM
- GI50 [14]: > 100 µM
- TGI [14]: > 100 µM
- GI50 [15]: 36.2 µM
- TGI [15]: > 100 µM
- GI50 [16]: > 100 µM
- TGI [16]: > 100 µM
- GI50 [17]: 26.9 µM
- TGI [17]: > 100 µM
- GI50 [18]: > 100 µM
- TGI [18]: > 100 µM
- GI50 [19]: 30.5 µM
- TGI [19]: > 100 µM
- GI50 [20]: > 100 µM
- TGI [20]: > 100 µM
- GI50 [21]: 68.1 µM
- TGI [21]: > 100 µM
- GI50 [22]: > 100 µM
- TGI [22]: > 100 µM
- GI50 [23]: 61.1 µM
- TGI [23]: > 100 µM
- GI50 [24]: > 72.3 µM
- TGI [24]: > 100 µM
- GI50 [25]: 49.9 µM
- TGI [25]: > 100 µM
- GI50 [26]: 68 µM
- TGI [26]: > 100 µM
- GI50 [27]: > 100 µM
- TGI [27]: > 100 µM
- GI50 [28]: > 100 µM
- TGI [28]: > 100 µM
- GI50 [29]: > 100 µM
- TGI [29]: > 100 µM
- GI50 [30]: > 39.1 µM
- TGI [30]: > 100 µM
- GI50 [31]: > 100 µM
- TGI [31]: > 100 µM
- GI50 [32]: 26 µM
- TGI [32]: > 100 µM
- GI50 [33]: > 100 µM
- TGI [33]: > 100 µM
- GI50 [34]: 54.8 µM
- TGI [34]: > 100 µM
- GI50 [35]: > 100 µM
- TGI [35]: > 100 µM
- GI50 [36]: > 100 µM
- TGI [36]: > 100 µM
- GI50 [37]: > 100 µM
- TGI [37]: > 100 µM
- GI50 [38]: 20.3 µM
- TGI [38]: > 85 µM
- GI50 [39]: 17.9 µM
- TGI [39]: > 100 µM
- GI50 [40]: > 100 µM
- TGI [40]: > 100 µM
- GI50 [41]: 12.4 µM
- TGI [41]: > 91.1 µM
- GI50 [42]: > 100 µM
- TGI [42]: > 100 µM
- GI50 [43]: > 100 µM
- TGI [43]: > 100 µM
- GI50 [44]: 57.1 µM
- TGI [44]: > 100 µM
- GI50 [45]: > 100 µM
- TGI [45]: > 100 µM
- GI50 [46]: 28.3 µM
- TGI [46]: > 100 µM
- GI50 [47]: > 100 µM
- TGI [47]: > 100 µM
- GI50 [48]: > 100 µM
- TGI [48]: > 100 µM
- GI50 [49]: > 100 µM
- TGI [49]: > 100 µM
- GI50 [50]: 1.77 µM
- TGI [50]: 25 µM
- GI50 [51]: 49.4 µM
- TGI [51]: > 100 µM
- GI50 [52]: > 100 µM
- TGI [52]: > 100 µM
- GI50 [53]: > 100 µM
- TGI [53]: > 100 µM
- GI50 [54]: 80.4 µM
- TGI [54]: > 100 µM
- GI50 [55]: > 100 µM
- TGI [55]: > 100 µM
- GI50 [56]: > 100 µM
- TGI [56]: > 100 µM
- GI50 [57]: 18.6 µM
- TGI [57]: > 100 µM

Structure (SMILES): CCOC(=O)NC(=S)N(CC(=O)c1cc(OC)c(OC)c(OC)c1)c1ccc(Cl)cc1
- GI50 [1]: > 100 µM
- TGI [1]: > 100 µM
- GI50 [2]: 55.2 µM
- TGI [2]: > 100 µM
- GI50 [3]: 33.4 µM
- TGI [3]: > 100 µM
- GI50 [4]: 51.8 µM
- TGI [4]: > 100 µM
- GI50 [5]: 17.2 µM
- TGI [5]: 89.7 µM
- GI50 [6]: 41.6 µM
- TGI [6]: > 100 µM
- GI50 [7]: 48.9 µM
- TGI [7]: > 100 µM
- GI50 [8]: 36.9 µM
- TGI [8]: > 100 µM
- GI50 [9]: > 100 µM
- TGI [9]: > 100 µM
- GI50 [10]: 75.8 µM
- TGI [10]: > 100 µM
- GI50 [11]: > 100 µM
- TGI [11]: > 100 µM
- GI50 [12]: 71.4 µM
- TGI [12]: > 100 µM
- GI50 [13]: 72.3 µM
- TGI [13]: > 100 µM
- GI50 [14]: 59.6 µM
- TGI [14]: > 100 µM
- GI50 [15]: 99.7 µM
- TGI [15]: > 100 µM
- GI50 [16]: 52.3 µM
- TGI [16]: > 100 µM
- GI50 [17]: 27.9 µM
- TGI [17]: > 100 µM
- GI50 [18]: > 100 µM
- TGI [18]: > 100 µM
- GI50 [19]: 23.5 µM
- TGI [19]: 72.9 µM
- GI50 [20]: > 100 µM
- TGI [20]: > 100 µM
- GI50 [21]: > 100 µM
- TGI [21]: > 100 µM
- GI50 [23]: 38.1 µM
- TGI [23]: > 100 µM
- GI50 [24]: 76.7 µM
- TGI [24]: > 100 µM
- GI50 [25]: > 100 µM
- TGI [25]: > 100 µM
- GI50 [26]: 23.7 µM
- TGI [26]: > 100 µM
- GI50 [27]: > 100 µM
- TGI [27]: > 100 µM
- GI50 [28]: > 100 µM
- TGI [28]: > 100 µM
- GI50 [29]: 62.6 µM
- TGI [29]: > 100 µM
- GI50 [30]: 60.6 µM
- TGI [30]: > 100 µM
- GI50 [31]: 72.2 µM
- TGI [31]: > 100 µM
- GI50 [32]: > 100 µM
- TGI [32]: > 100 µM
- GI50 [34]: 25.1 µM
- TGI [34]: > 100 µM
- GI50 [35]: > 100 µM
- TGI [35]: > 100 µM
- GI50 [36]: > 100 µM
- TGI [36]: > 100 µM
- GI50 [37]: 52.5 µM
- TGI [37]: > 100 µM
- GI50 [38]: 43 µM
- TGI [38]: > 100 µM
- GI50 [39]: 34.1 µM
- TGI [39]: > 100 µM
- GI50 [40]: 56.5 µM
- TGI [40]: > 100 µM
- GI50 [41]: 38.9 µM
- TGI [41]: > 100 µM
- GI50 [58]: 62.4 µM
- TGI [58]: > 100 µM
- GI50 [42]: 65.7 µM
- TGI [42]: > 100 µM
- GI50 [43]: 30.2 µM
- TGI [43]: > 100 µM
- GI50 [44]: 36.7 µM
- TGI [44]: > 100 µM
- GI50 [45]: 79.1 µM
- TGI [45]: > 100 µM
- GI50 [46]: 96.4 µM
- TGI [46]: > 100 µM
- GI50 [47]: 70.1 µM
- TGI [47]: > 100 µM
- GI50 [48]: > 100 µM
- TGI [48]: > 100 µM
- GI50 [49]: 63.5 µM
- TGI [49]: > 100 µM
- GI50 [50]: 90.1 µM
- TGI [50]: > 100 µM
- GI50 [51]: > 100 µM
- TGI [51]: > 100 µM
- GI50 [52]: 47.4 µM
- TGI [52]: > 100 µM
- GI50 [53]: 45.9 µM
- TGI [53]: > 100 µM
- GI50 [54]: > 100 µM
- TGI [54]: > 100 µM
- GI50 [55]: > 100 µM
- TGI [55]: > 100 µM
- GI50 [56]: > 100 µM
- TGI [56]: > 100 µM
- GI50 [57]: > 100 µM
- TGI [57]: > 100 µM
